This is an account of results in patent publication US10072011B2, “Substituted bridged urea analogs as sirtuin modulators” (GlaxoSmithKline Intellectual Property (No.2) Limited, priority 2014, dated 2018).

SMILES strings stand for the structures. Like-named read-outs stand apart in the source and are kept apart here.

This experiment concerns the target T1, SIRT1 (Homo sapiens, UniProt Q96EB6).
T1 sequence (Q96EB6 1-747): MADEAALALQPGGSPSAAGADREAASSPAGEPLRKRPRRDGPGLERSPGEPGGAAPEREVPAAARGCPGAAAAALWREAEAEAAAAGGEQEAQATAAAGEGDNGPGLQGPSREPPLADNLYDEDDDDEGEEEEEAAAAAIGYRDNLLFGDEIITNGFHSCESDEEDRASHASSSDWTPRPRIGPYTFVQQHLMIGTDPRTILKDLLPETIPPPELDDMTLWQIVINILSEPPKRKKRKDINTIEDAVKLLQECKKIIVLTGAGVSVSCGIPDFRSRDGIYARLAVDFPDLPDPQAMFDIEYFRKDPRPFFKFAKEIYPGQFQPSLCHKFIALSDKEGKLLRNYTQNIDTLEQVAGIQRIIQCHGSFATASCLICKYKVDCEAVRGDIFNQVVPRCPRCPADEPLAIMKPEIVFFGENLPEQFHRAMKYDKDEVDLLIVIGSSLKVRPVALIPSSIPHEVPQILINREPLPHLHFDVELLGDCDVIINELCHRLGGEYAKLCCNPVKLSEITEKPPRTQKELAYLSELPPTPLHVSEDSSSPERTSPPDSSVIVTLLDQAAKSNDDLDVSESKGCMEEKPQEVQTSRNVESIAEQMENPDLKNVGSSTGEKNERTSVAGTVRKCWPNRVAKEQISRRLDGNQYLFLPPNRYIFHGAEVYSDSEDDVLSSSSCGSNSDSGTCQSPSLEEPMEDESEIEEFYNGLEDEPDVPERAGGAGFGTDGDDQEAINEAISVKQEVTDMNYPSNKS
The experiment can be described thus: Trp mass spectrometry assay of SIRT1 activation (Ac-R-H-K-K(Ac)-W-NH2 peptide). The format is biochemical. The settings on record: for Emax: 25 min, read-out: TRP MAX RESP (percent maximum fold activation). Put shortly: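 N-terminal His-tagged human SIRT1, expressed in BL21(DE3) and purified, was incubated 25 min with an acetylated Trp peptide and NAD plus test compound at varying concentrations, then quenched with formic acid. OAADPR or deacetylated peptide was quantified by mass spectrometry versus compound-free control; EC1.5 is the concentration giving 50% activity increase, with percent maximum activation.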

Where [1] appears, read: Trp peptide 0.5 μM, 120 μM βNAD+, 10 nM SIRT1, 25 min at 25° C., relative to control (100%).
Where [2] appears, read: Trp peptide 0.5 μM, 120 μM βNAD+, 10 nM SIRT1, 25 min at 25° C.

With `O=C(NC[C@H]1CCCO1)c1ccc2c(n1)N(C(=O)Nc1ccccn1)[C@H]1CCN2C1` [Example 42, (4S)—N5-(pyridin-2-yl)-N7-(((R)-tetrahydrofuran-2-yl)methyl)-3,4-dihydro-1,4-methanopyrido[2,3-b][1,4]diazepine-5,7(2H)-dicarboxamide], the Emax under setting [1] was over 150%. In addition, under setting [2], the “TRP Activity (EC1.5, concentration of test compound that results in 150% activation of SIRT1)” value is on record as “B (EC1.5 1-25 μM)”.

Consider `CC(C)[C@@H](C)NC(=O)c1ccc2c(n1)N(C(=O)Nc1ccccn1)[C@H]1CCN2C1` [Example 45, (4S)—N7-((R)-3-methylbutan-2-yl)-N5-(pyridin-2-yl)-3,4-dihydro-1,4-methanopyrido[2,3-b][1,4]diazepine-5,7(2H)-dicarboxamide], for which the Emax under setting [1] was over 150%. For the same compound, under setting [2], the “TRP Activity (EC1.5, concentration of test compound that results in 150% activation of SIRT1)” value was “A (EC1.5<1 μM)”.

For the compound `O=C(N[C@H](C1CC1)C(F)(F)F)c1ccc2c(n1)N(C(=O)Nc1ccccn1)[C@H]1CCN2C1` [Example 46, (4S)—N7-((R)-1-cyclopropyl-2,2,2-trifluoroethyl)-N5-(pyridin-2-yl)-3,4-dihydro-1,4-methanopyrido[2,3-b][1,4]diazepine-5,7(2H)-dicarboxamide], under setting [1], the Emax was over 150%. In addition, under setting [2], the “TRP Activity (EC1.5, concentration of test compound that results in 150% activation of SIRT1)” value is “A (EC1.5<1 μM)”.

In the case of `CC(F)(F)CNC(=O)c1ccc2c(n1)N(C(=O)Nc1ccccn1)[C@H]1CCN2C1` [Example 47, (4S)—N7-(2,2-difluoropropyl)-N5-(pyridin-2-yl)-3,4-dihydro-1,4-methanopyrido[2,3-b][1,4]diazepine-5,7(2H)-dicarboxamide], the Emax under setting [1] was over 150%. Also, the “TRP Activity (EC1.5, concentration of test compound that results in 150% activation of SIRT1)” value under setting [2] is “A (EC1.5<1 μM)”.

For `CC(C)(C)NC(=O)c1ccc2c(n1)N(C(=O)Nc1ccccn1)[C@H]1CCN2C1` [Example 48, (4S)—N7-(tert-butyl)-N5-(pyridin-2-yl)-3,4-dihydro-1,4-methanopyrido[2,3-b][1,4]diazepine-5,7(2H)-dicarboxamide], under setting [1], the Emax is over 150%. For the same compound, under setting [2], the “TRP Activity (EC1.5, concentration of test compound that results in 150% activation of SIRT1)” value was “B (EC1.5 1-25 μM)”.

Regarding `O=C(NCC1CC1)c1ccc2c(n1)N(C(=O)Nc1ccc(Cl)cn1)[C@H]1CCN2C1` [Example 51, (4S)—N5-(5-chloropyridin-2-yl)-N7-(cyclopropylmethyl)-3,4-dihydro-1,4-methanopyrido[2,3-b][1,4]diazepine-5,7(2H)-dicarboxamide], under setting [1], the Emax was over 150%. For the same compound, under setting [2], the “TRP Activity (EC1.5, concentration of test compound that results in 150% activation of SIRT1)” value is “A (EC1.5<1 μM)”.

In the case of `O=C(NC[C@H](O)C(F)(F)F)c1ccc2c(n1)N(C(=O)Nc1ccccn1)[C@H]1CCN2C1` [Example 52, (4S)—N5-(pyridin-2-yl)-N7-((S)-3,3,3-trifluoro-2-hydroxypropyl)-3,4-dihydro-1,4-methanopyrido[2,3-b][1,4]diazepine-5,7(2H)-dicarboxamide], the Emax under setting [1] was over 150%. In addition, the “TRP Activity (EC1.5, concentration of test compound that results in 150% activation of SIRT1)” value under setting [2] is on record as “A (EC1.5<1 μM)”.

Consider `C[C@@H](CO)NC(=O)c1ccc2c(n1)N(C(=O)Nc1ccccn1)[C@H]1CCN2C1` [Example 53, (4S)—N7-((S)-1-hydroxypropan-2-yl)-N5-(pyridin-2-yl)-3,4-dihydro-1,4-methanopyrido[2,3-b][1,4]diazepine-5,7(2H)-dicarboxamide], for which, under setting [1], the Emax was over 150%. Moreover, under setting [2], the “TRP Activity (EC1.5, concentration of test compound that results in 150% activation of SIRT1)” value was “B (EC1.5 1-25 μM)”.

In the case of `Cc1ccc2c(NC(=O)N3c4nc(C(=O)NC5CC5)ccc4N4CC[C@H]3C4)n[nH]c2n1` [Example 54, (4S)—N7-cyclopropyl-N5-(6-methyl-1H-pyrazolo[3,4-b]pyridin-3-yl)-3,4-dihydro-1,4-methanopyrido[2,3-b][1,4]diazepine-5,7(2H)-dicarboxamide], under setting [1], the Emax is over 150%. Moreover, under setting [2], the “TRP Activity (EC1.5, concentration of test compound that results in 150% activation of SIRT1)” value is reported as “B (EC1.5 1-25 μM)”.

For the compound `Cc1ccnc(NC(=O)N2c3nc(C(=O)N[C@H](C)C(F)(F)F)ccc3N3CC[C@H]2C3)c1` [Example 55, (4S)—N5-(4-methylpyridin-2-yl)-N7-((R)-1,1,1-trifluoropropan-2-yl)-3,4-dihydro-1,4-methanopyrido[2,3-b][1,4]diazepine-5,7(2H)-dicarboxamide], the Emax under setting [1] is over 150%. Also, the “TRP Activity (EC1.5, concentration of test compound that results in 150% activation of SIRT1)” value under setting [2] is “A (EC1.5<1 μM)”.

As to `Cc1ccc(NC(=O)N2c3nc(C(=O)N[C@H](C)C(F)(F)F)ccc3N3CC[C@H]2C3)nc1` [Example 56, (4S)—N5-(5-methylpyridin-2-yl)-N7-((R)-1,1,1-trifluoropropan-2-yl)-3,4-dihydro-1,4-methanopyrido[2,3-b][1,4]diazepine-5,7(2H)-dicarboxamide], under setting [1], the Emax is over 150%. For the same compound, under setting [2], the “TRP Activity (EC1.5, concentration of test compound that results in 150% activation of SIRT1)” value is reported as “A (EC1.5<1 μM)”.

For the compound `Cc1cc(F)cnc1NC(=O)N1c2nc(C(=O)N[C@H](C)C(F)(F)F)ccc2N2CC[C@H]1C2` [Example 57, (4S)—N5-(5-fluoro-3-methylpyridin-2-yl)-N7-((R)-1,1,1-trifluoropropan-2-yl)-3,4-dihydro-1,4-methanopyrido[2,3-b][1,4]diazepine-5,7(2H)-dicarboxamide], the Emax under setting [1] was over 150%. For the same compound, the “TRP Activity (EC1.5, concentration of test compound that results in 150% activation of SIRT1)” value under setting [2] was “B (EC1.5 1-25 μM)”.

With `C[C@@H](NC(=O)c1ccc2c(n1)N(C(=O)Nc1ncc3cc[nH]c3n1)[C@H]1CCN2C1)C(F)(F)F` [Example 62, (4S)—N5-(7H-pyrrolo[2,3-d]pyrimidin-2-yl)-N7-((R)-1,1,1-trifluoropropan-2-yl)-3,4-dihydro-1,4-methanopyrido[2,3-b][1,4]diazepine-5,7(2H)-dicarboxamide], the Emax under setting [1] is over 150%. Also, under setting [2], the “TRP Activity (EC1.5, concentration of test compound that results in 150% activation of SIRT1)” value is given as “A (EC1.5<1 μM)”.

As to `O=C(NCC(F)(F)F)c1ccc2c(n1)N(C(=O)Nc1cnccn1)[C@H]1CCN2C1` [Example 63, (4S)—N5-(pyrazin-2-yl)-N7-(2,2,2-trifluoroethyl)-3,4-dihydro-1,4-methanopyrido[2,3-b][1,4]diazepine-5,7(2H)-dicarboxamide], the Emax was over 150%. Also, the “TRP Activity (EC1.5, concentration of test compound that results in 150% activation of SIRT1)” value under setting [2] is reported as “A (EC1.5<1 μM)”.

Take `Cc1ccc2c(NC(=O)N3c4nc(C(=O)NCC(F)(F)F)ccc4N4CC[C@H]3C4)n[nH]c2n1` [Example 64, (4S)—N5-(6-methyl-1H-pyrazolo[3,4-b]pyridin-3-yl)-N7-(2,2,2-trifluoroethyl)-3,4-dihydro-1,4-methanopyrido[2,3-b][1,4]diazepine-5,7(2H)-dicarboxamide]: under setting [1], the Emax is over 150%. Further, the “TRP Activity (EC1.5, concentration of test compound that results in 150% activation of SIRT1)” value under setting [2] is reported as “A (EC1.5<1 μM)”.

For the compound `C[C@@H](NC(=O)c1ccc2c(n1)N(C(=O)Nc1ccncn1)[C@H]1CCN2C1)C(F)(F)F` [Example 66, (4S)—N5-(pyrimidin-4-yl)-N7-((R)-1,1,1-trifluoropropan-2-yl)-3,4-dihydro-1,4-methanopyrido[2,3-b][1,4]diazepine-5,7(2H)-dicarboxamide], the Emax under setting [1] was over 150%. In addition, the “TRP Activity (EC1.5, concentration of test compound that results in 150% activation of SIRT1)” value under setting [2] is “A (EC1.5<1 μM)”.

Consider `O=C(NC1CC1)c1ccc2c(n1)N(C(=O)Nc1ccc(Cl)cn1)[C@H]1CCN2C1` [Example 67, (4S)—N5-(5-chloropyridin-2-yl)-N7-cyclopropyl-3,4-dihydro-1,4-methanopyrido[2,3-b][1,4]diazepine-5,7(2H)-dicarboxamide], for which, under setting [1], the Emax was over 150%. Moreover, the “TRP Activity (EC1.5, concentration of test compound that results in 150% activation of SIRT1)” value under setting [2] is “B (EC1.5 1-25 μM)”.

Consider `C[C@@H](NC(=O)c1ccc2c(n1)N(C(=O)Nc1cc[nH]n1)[C@H]1CCN2C1)C(F)(F)F` [Example 68, (4S)—N5-(1H-pyrazol-3-yl)-N7-((R)-1,1,1-trifluoropropan-2-yl)-3,4-dihydro-1,4-methanopyrido[2,3-b][1,4]diazepine-5,7(2H)-dicarboxamide], for which, under setting [1], the Emax was over 150%. Under setting [2], the “TRP Activity (EC1.5, concentration of test compound that results in 150% activation of SIRT1)” value is on record as “A (EC1.5<1 μM)”.

In the case of `O=C(NCC(F)F)c1ccc2c(n1)N(C(=O)Nc1ccc(F)cn1)[C@H]1CCN2C1` [Example 69, (4S)—N7-(2,2-difluoroethyl)-N5-(5-fluoropyridin-2-yl)-3,4-dihydro-1,4-methanopyrido[2,3-b][1,4]diazepine-5,7(2H)-dicarboxamide], the Emax was over 150%. Besides, the “TRP Activity (EC1.5, concentration of test compound that results in 150% activation of SIRT1)” value under setting [2] is “A (EC1.5<1 μM)”.
